From PubChem BioAssay (NCI)
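GI50 = concentration required for 50% inhibition of growth. At the TGI there is no net growth.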

What was measured:
Experiment in all cases: inhibition of tumour cell growth, NCI panel, 384-well format
TK-10 renal = system: TK-10 renal
T-47D breast = system: T-47D breast
SK-OV-3 ovarian = system: SK-OV-3 ovarian
MDA-MB-468 breast = system: MDA-MB-468 breast
RPMI-8226 leukemia = system: RPMI-8226 leukemia
BT-549 breast = system: BT-549 breast
NCI-H23 lung = system: NCI-H23 lung
MALME-3M melanoma = system: MALME-3M melanoma
NCI-H460 NSCLC = system: NCI-H460 NSCLC
HCT-116 colon = system: HCT-116 colon
COLO 205 colon = system: COLO 205 colon
HOP-92 NSCLC = system: HOP-92 NSCLC
SF-295 CNS = system: SF-295 CNS
ACHN renal = system: ACHN renal
KM12 colon = system: KM12 colon
UACC-257 melanoma = system: UACC-257 melanoma
OVCAR-4 ovarian = system: OVCAR-4 ovarian
A549 NSCLC = system: A549 NSCLC
SF-539 CNS = system: SF-539 CNS
LOX IMVI melanoma = system: LOX IMVI melanoma
UO-31 renal = system: UO-31 renal
SR leukemia = system: SR leukemia
M14 melanoma = system: M14 melanoma
UACC-62 melanoma = system: UACC-62 melanoma
MDA-MB-435 melanoma = system: MDA-MB-435 melanoma
RXF 393 renal = system: RXF 393 renal
SN12C renal = system: SN12C renal
NCI-H322M lung = system: NCI-H322M lung
HOP-62 NSCLC = system: HOP-62 NSCLC
OVCAR-5 ovarian = system: OVCAR-5 ovarian
786-0 renal = system: 786-0 renal
MCF7 breast = system: MCF7 breast
NCI/ADR-RES ovarian = system: NCI/ADR-RES ovarian
K-562 leukemia = system: K-562 leukemia
IGROV1 ovarian = system: IGROV1 ovarian
SNB-19 CNS = system: SNB-19 CNS
A498 renal = system: A498 renal
OVCAR-3 ovarian = system: OVCAR-3 ovarian
U251 glioblastoma = system: U251 glioblastoma
CCRF-CEM leukemia = system: CCRF-CEM leukemia
CAKI-1 renal = system: CAKI-1 renal
SK-MEL-2 melanoma = system: SK-MEL-2 melanoma
NCI-H226 lung = system: NCI-H226 lung
MOLT-4 leukemia = system: MOLT-4 leukemia
HCT-15 colon = system: HCT-15 colon
SK-MEL-5 melanoma = system: SK-MEL-5 melanoma
DU-145 prostate = system: DU-145 prostate
SF-268 CNS = system: SF-268 CNS
NCI-H522 lung = system: NCI-H522 lung
HCC-2998 colon = system: HCC-2998 colon
HT29 colon = system: HT29 colon
MDA-MB-231 breast = system: MDA-MB-231 breast
PC-3 prostate = system: PC-3 prostate
SW-620 colon = system: SW-620 colon
HL-60(TB) leukemia = system: HL-60(TB) leukemia
OVCAR-8 ovarian = system: OVCAR-8 ovarian
SK-MEL-28 melanoma = system: SK-MEL-28 melanoma

Q: What does the source list for `COCCOCCOCCOCCOC(=O)OC[n+]1ccc(NC(=NCCCCCCOc2ccc(Cl)cc2)NC#N)cc1`?
A: GI50 (TK-10 renal): < 10 nM; TGI (TK-10 renal): < 10 nM; GI50 (T-47D breast): < 10 nM; TGI (T-47D breast): < 10 nM; GI50 (SK-OV-3 ovarian): < 10 nM; TGI (SK-OV-3 ovarian): < 10 nM; GI50 (MDA-MB-468 breast): < 10 nM; TGI (MDA-MB-468 breast): < 10 nM; GI50 (RPMI-8226 leukemia): < 10 nM; TGI (RPMI-8226 leukemia): < 10 nM; GI50 (BT-549 breast): < 10 nM; TGI (BT-549 breast): < 10 nM; GI50 (NCI-H23 lung): < 10 nM; TGI (NCI-H23 lung): < 10 nM; GI50 (MALME-3M melanoma): 25.3 nM; TGI (MALME-3M melanoma): 46.4 nM; GI50 (NCI-H460 NSCLC): < 10 nM; TGI (NCI-H460 NSCLC): < 10 nM; GI50 (HCT-116 colon): < 10 nM; TGI (HCT-116 colon): < 10 nM; GI50 (COLO 205 colon): < 10 nM; TGI (COLO 205 colon): < 10 nM; GI50 (HOP-92 NSCLC): 21.6 nM; TGI (HOP-92 NSCLC): 41.5 nM; GI50 (SF-295 CNS): < 10 nM; TGI (SF-295 CNS): < 10 nM; GI50 (ACHN renal): < 10 nM; TGI (ACHN renal): < 10 nM; GI50 (KM12 colon): < 10 nM; TGI (KM12 colon): < 10 nM; GI50 (UACC-257 melanoma): < 10 nM; TGI (UACC-257 melanoma): 15.8 nM; GI50 (OVCAR-4 ovarian): < 10 nM; TGI (OVCAR-4 ovarian): < 10 nM; GI50 (A549 NSCLC): < 10 nM; TGI (A549 NSCLC): 19.4 nM; GI50 (SF-539 CNS): < 10 nM; TGI (SF-539 CNS): < 10 nM; GI50 (LOX IMVI melanoma): < 10 nM; TGI (LOX IMVI melanoma): < 10 nM; GI50 (UO-31 renal): < 10 nM; TGI (UO-31 renal): < 10 nM; GI50 (SR leukemia): 18.8 nM; TGI (SR leukemia): 33.3 nM; GI50 (M14 melanoma): < 10 nM; TGI (M14 melanoma): 18.9 nM; GI50 (UACC-62 melanoma): < 10 nM; TGI (UACC-62 melanoma): < 10 nM; GI50 (MDA-MB-435 melanoma): < 10 nM; TGI (MDA-MB-435 melanoma): < 10 nM; GI50 (RXF 393 renal): < 10 nM; TGI (RXF 393 renal): < 10 nM; GI50 (SN12C renal): < 10 nM; TGI (SN12C renal): < 10 nM; GI50 (NCI-H322M lung): < 10 nM; TGI (NCI-H322M lung): < 10 nM; GI50 (HOP-62 NSCLC): < 10 nM; TGI (HOP-62 NSCLC): < 10 nM; GI50 (OVCAR-5 ovarian): < 10 nM; TGI (OVCAR-5 ovarian): < 10 nM; GI50 ([…]-0 renal): < 10 nM; TGI (786-0 renal): < 10 nM; GI50 (MCF7 breast): < 10 nM; TGI (MCF7 breast): < 10 nM; GI50 (NCI/ADR-RES ovarian): < 10 nM; TGI (NCI/ADR-RES ovarian): < 10 nM; GI50 (K-562 leukemia): < 10 nM; TGI (K-562 leukemia): < 10 nM; GI50 (IGROV1 ovarian): < 10 nM; TGI (IGROV1 ovarian): < 10 nM; GI50 (SNB-19 CNS): < 10 nM; TGI (SNB-19 CNS): < 10 nM; GI50 (A498 renal): 25.3 nM; TGI (A498 renal): 58.6 nM; GI50 (OVCAR-3 ovarian): < 10 nM; TGI (OVCAR-3 ovarian): < 10 nM; GI50 (U251 glioblastoma): < 10 nM; TGI (U251 glioblastoma): < 10 nM; GI50 (CCRF-CEM leukemia): < 10 nM; TGI (CCRF-CEM leukemia): < 10 nM; GI50 (CAKI-1 renal): < 10 nM; TGI (CAKI-1 renal): < 10 nM; GI50 (SK-MEL-2 melanoma): < 10 nM; TGI (SK-MEL-2 melanoma): < 10 nM; GI50 (NCI-H226 lung): 77.9 nM; TGI (NCI-H226 lung): 2960 nM; GI50 (MOLT-4 leukemia): < 10 nM; TGI (MOLT-4 leukemia): < 10 nM; GI50 (HCT-15 colon): < 10 nM; TGI (HCT-15 colon): < 10 nM; GI50 (SK-MEL-5 melanoma): < 10 nM; TGI (SK-MEL-5 melanoma): < 10 nM; GI50 (DU-145 prostate): < 10 nM; TGI (DU-145 prostate): 18.8 nM; GI50 (SF-268 CNS): < 10 nM; TGI (SF-268 CNS): < 10 nM; GI50 (NCI-H522 lung): < 10 nM; TGI (NCI-H522 lung): < 10 nM; GI50 (HCC-2998 colon): < 10 nM; TGI (HCC-2998 colon): < 10 nM; GI50 (HT29 colon): < 10 nM; TGI (HT29 colon): < 10 nM; GI50 (MDA-MB-231 breast): 15.2 nM; TGI (MDA-MB-231 breast): 30.1 nM; GI50 (PC-3 prostate): < 10 nM; TGI (PC-3 prostate): < 10 nM; GI50 (SW-620 colon): < 10 nM; TGI (SW-620 colon): < 10 nM; GI50 (HL-60(TB) leukemia): < 10 nM; TGI (HL-60(TB) leukemia): < 10 nM; GI50 (OVCAR-8 ovarian): < 10 nM; TGI (OVCAR-8 ovarian): < 10 nM; GI50 (SK-MEL-28 melanoma): < 10 nM; TGI (SK-MEL-28 melanoma): < 10 nM
